According to patent US9580416B2, “Inhibitors of Bruton's tyrosine kinase” (PHARMACYCLICS LLC, priority 2014, dated 2017):
Like-named read-outs stand apart in the source and are kept apart here.

Key:
Type in all cases: biochemical
EGFR = EGFR (Homo sapiens, UniProt P00533); experiment: Inhibition of a panel of kinases, in vitro HotSpot kinase assay: EGFR
Experimental: (§1) The degree of inhibition of a panel of kinases is determined using the in vitro HotSpot kinase assay (purified enzymes, ^33P-ATP, an appropriate substrate and 1 uM ATP).

JAK3 = molecular target: T1, JAK3 (Homo sapiens, UniProt P52333); experiment: Inhibition of a panel of kinases, in vitro HotSpot kinase assay: JAK3
T1 sequence (P52333 1-1124): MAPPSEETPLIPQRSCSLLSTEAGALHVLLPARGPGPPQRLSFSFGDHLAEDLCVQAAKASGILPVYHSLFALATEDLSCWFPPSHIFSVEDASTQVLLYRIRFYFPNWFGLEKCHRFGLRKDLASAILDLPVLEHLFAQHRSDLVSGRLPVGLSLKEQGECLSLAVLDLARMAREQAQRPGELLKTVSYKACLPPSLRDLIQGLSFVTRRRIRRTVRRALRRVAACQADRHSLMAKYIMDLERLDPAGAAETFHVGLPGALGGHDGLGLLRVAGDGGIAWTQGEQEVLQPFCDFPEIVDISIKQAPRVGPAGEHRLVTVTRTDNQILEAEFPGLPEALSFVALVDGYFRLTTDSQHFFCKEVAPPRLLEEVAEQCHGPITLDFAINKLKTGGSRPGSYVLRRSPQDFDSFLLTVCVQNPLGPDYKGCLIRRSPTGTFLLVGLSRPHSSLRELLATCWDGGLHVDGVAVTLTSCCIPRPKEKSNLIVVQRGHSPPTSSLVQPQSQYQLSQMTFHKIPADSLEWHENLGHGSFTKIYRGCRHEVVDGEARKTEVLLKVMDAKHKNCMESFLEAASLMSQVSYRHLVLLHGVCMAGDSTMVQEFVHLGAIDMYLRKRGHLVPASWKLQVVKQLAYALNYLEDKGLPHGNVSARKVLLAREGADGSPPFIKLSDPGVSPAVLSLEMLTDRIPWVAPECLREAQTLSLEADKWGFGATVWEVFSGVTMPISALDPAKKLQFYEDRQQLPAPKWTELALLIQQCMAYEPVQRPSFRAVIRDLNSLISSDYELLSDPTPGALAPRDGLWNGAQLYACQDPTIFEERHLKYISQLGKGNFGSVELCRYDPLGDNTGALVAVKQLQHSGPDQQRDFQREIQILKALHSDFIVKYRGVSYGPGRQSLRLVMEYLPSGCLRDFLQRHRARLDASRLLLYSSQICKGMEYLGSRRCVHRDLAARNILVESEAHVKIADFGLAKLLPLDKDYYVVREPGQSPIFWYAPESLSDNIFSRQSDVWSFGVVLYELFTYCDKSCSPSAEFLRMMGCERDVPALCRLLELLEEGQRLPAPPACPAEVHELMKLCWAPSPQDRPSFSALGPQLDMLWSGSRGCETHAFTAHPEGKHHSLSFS
Experimental: as §1

Lck = Lck (Homo sapiens, UniProt P06239); experiment: Lck kinase activity, TR-FRET assay
Procedure, shortened: (§2)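 Enzyme (Btk 0.5 nM; Lck 6 nM) reacted 1 h with inhibitor, ATP at Km and biotin-peptide substrate in pH 7.4 buffer, 10% DMSO. Phosphopeptide detected by Eu-p-Tyr100 antibody plus streptavidin-APC (665/615 nm). IC50 calculated from fitted Ki(app) via ATP/Km correction plus half total enzyme.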

Btk = Btk (Homo sapiens, UniProt Q06187); experiment: Btk kinase activity, TR-FRET assay
Procedure, shortened: as §2

Chain of Btk (Q06187 whole entry): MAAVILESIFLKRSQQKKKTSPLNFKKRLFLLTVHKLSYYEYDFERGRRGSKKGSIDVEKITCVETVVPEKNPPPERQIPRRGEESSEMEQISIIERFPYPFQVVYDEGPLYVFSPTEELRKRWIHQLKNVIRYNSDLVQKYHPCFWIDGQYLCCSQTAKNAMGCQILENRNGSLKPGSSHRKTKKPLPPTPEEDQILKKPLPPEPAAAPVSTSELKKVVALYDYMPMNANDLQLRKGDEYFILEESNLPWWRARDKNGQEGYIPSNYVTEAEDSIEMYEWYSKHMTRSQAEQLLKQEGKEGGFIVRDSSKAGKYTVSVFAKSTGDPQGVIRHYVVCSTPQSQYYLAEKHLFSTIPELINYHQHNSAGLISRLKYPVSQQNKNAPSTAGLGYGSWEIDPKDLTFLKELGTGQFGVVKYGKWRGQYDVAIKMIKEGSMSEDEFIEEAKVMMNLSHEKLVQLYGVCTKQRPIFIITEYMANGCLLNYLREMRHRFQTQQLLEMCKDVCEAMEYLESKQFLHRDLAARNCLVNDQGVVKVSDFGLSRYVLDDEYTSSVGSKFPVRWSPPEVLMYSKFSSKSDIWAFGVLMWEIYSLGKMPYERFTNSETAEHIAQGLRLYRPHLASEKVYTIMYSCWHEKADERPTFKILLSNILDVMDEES
Chain of EGFR (P00533 25-1210): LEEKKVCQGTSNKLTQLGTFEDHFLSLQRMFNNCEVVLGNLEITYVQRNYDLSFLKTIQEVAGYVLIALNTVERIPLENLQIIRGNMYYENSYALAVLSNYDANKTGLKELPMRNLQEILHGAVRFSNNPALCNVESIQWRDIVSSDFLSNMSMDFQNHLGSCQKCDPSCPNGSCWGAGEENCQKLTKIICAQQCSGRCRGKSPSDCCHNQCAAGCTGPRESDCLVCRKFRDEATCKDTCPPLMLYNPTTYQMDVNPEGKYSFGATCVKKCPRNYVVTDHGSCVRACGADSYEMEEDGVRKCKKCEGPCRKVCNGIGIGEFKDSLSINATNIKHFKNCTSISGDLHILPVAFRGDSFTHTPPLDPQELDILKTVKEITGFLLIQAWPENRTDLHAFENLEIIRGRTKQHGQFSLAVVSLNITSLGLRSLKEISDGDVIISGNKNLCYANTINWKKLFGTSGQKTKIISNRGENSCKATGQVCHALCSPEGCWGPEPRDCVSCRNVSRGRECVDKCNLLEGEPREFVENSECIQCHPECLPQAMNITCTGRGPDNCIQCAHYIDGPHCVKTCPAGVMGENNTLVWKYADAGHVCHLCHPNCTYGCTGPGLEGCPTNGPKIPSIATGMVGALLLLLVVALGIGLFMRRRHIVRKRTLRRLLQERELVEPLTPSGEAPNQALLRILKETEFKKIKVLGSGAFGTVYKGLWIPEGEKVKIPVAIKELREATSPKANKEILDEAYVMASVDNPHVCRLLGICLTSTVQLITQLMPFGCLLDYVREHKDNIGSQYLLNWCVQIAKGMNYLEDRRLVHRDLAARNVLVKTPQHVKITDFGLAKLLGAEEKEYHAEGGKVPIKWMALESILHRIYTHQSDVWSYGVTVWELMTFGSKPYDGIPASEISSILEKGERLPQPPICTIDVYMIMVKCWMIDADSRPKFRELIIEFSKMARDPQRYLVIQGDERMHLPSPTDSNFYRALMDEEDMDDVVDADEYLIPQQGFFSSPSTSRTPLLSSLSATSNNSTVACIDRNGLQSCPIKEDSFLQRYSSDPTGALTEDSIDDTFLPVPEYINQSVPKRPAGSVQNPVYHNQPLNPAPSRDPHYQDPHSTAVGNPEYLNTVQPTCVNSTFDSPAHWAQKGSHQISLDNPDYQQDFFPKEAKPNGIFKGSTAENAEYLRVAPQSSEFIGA
Chain of Lck (P06239 whole entry, species assumed): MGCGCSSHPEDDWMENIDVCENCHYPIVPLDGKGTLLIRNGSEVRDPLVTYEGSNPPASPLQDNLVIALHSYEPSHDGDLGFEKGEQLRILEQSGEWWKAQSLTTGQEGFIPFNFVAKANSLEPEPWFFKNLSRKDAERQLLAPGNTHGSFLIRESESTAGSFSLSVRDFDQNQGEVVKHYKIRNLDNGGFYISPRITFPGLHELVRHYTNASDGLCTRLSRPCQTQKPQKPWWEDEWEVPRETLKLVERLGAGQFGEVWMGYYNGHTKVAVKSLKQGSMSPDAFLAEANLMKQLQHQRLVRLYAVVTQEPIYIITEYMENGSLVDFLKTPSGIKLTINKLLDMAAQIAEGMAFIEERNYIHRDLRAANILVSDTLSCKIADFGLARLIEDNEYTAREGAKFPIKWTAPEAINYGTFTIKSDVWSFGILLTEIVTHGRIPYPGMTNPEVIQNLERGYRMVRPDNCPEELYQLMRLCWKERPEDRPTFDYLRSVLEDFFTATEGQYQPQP

| Structure (SMILES) | IC50 (EGFR) | IC50 (JAK3) | IC50 (Lck) | IC50 (Btk) | IC50 (Lck; read-out: LCK (IC50)) | IC50 (Btk; read-out: Btk (IC50)) |
| --- | --- | --- | --- | --- | --- | --- |
| Cc1ccnc(NC(=O)c2ccc(Oc3ccnc4[nH]nc(N[C@@H]5CCCN(C(=O)Oc6ccccc6)C5)c34)cc2)c1 [compound 93, phenyl (3R)-3-[(4-{4-[(4-methylpyridin-2-yl)carbamoyl]phenoxy}-1H-pyrazolo[3,4-b]pyridin-3-yl)amino]piperidine-1-carboxylate] | > 10 µM | > 10 µM | 1 to 10 µM | 0.1 to 1 µM | – | – |
| Cc1ccnc(NC(=O)c2ccc(Oc3ccnc4[nH]nc(N[C@@H]5CCCN(C(=O)CCCN(C)C)C5)c34)cc2)c1 [compound 95] | 1 to 10 µM | > 10 µM | – | – | < 0.1 µM | < 0.1 µM |
| Cc1ccnc(NC(=O)c2ccc(Oc3ccnc4[nH]nc(N[C@@H]5CCCN(C(=O)C6CCNCC6)C5)c34)cc2)c1 [compound 96, N-(4-methylpyridin-2-yl)-4-[(3-{[(3R)-1-(piperidin-4-carbonyl)piperidin-3-yl]amino}-1H-pyrazolo[3,4-b]pyridin-4-yl)oxy]benzamide] | 1 to 10 µM | > 10 µM | – | – | 0.1 to 1 µM | < 0.1 µM |
| CNC(=O)C(=O)N1CCC[C@@H](Nc2n[nH]c3nccc(Oc4ccc(C(=O)Nc5cc(C)ccn5)cc4)c23)C1 [compound 97, 4-[(3-{[(3R)-1-[(methylcarbamoyl)carbonyl]piperidin-3-yl]amino}-1H-pyrazolo[3,4-b]pyridin-4-yl)oxy]-N-(4-methylpyridin-2-yl)benzamide] | 1 to 10 µM | > 10 µM | – | – | 0.1 to 1 µM | < 0.1 µM |
| Cc1ccnc(NC(=O)c2ccc(Oc3ccnc4[nH]nc(N[C@@H]5CCCN(C(=O)C(=O)N(C)C)C5)c34)cc2)c1 [compound 98, 4-[(3-{[(3R)-1-[(dimethylcarbamoyl)carbonyl]piperidin-3-yl]amino}-1H-pyrazolo[3,4-b]pyridin-4-yl)oxy]-N-(4-methylpyridin-2-yl)benzamide] | > 10 µM | > 10 µM | – | – | 0.1 to 1 µM | < 0.1 µM |
| COCC1(C(=O)N2CCC[C@@H](Nc3n[nH]c4nccc(Oc5ccc(C(=O)Nc6cc(C)ccn6)cc5)c34)C2)CCC1 [compound 99, 4-[(3-{[(3R)-1-[1-(methoxymethyl)cyclobutanecarbonyl]piperidin-3-yl]amino}-1H-pyrazolo[3,4-b]pyridin-4-yl)oxy]-N-(4-methylpyridin-2-yl)benzamide] | > 10 µM | > 10 µM | – | – | 0.1 to 1 µM | < 0.1 µM |
| Cc1ccnc(NC(=O)c2ccc(Oc3ccnc4[nH]nc(N[C@@H]5CCCN(C(=O)C6CC6)C5)c34)cc2)c1 [compound 100, 4-[(3-{[(3R)-1-cyclopropanecarbonylpiperidin-3-yl]amino}-1H-pyrazolo[3,4-b]pyridin-4-yl)oxy]-N-(4-methylpyridin-2-yl)benzamide] | 1 to 10 µM | > 10 µM | – | – | 0.1 to 1 µM | < 0.1 µM |
| Cc1ccnc(NC(=O)c2ccc(Oc3ccnc4[nH]nc(N[C@@H]5CCCN(C(=O)C6(C#N)CC6)C5)c34)cc2)c1 [compound 101, 4-[(3-{[(3R)-1-(1-cyanocyclopropanecarbonyl)piperidin-3-yl]amino}-1H-pyrazolo[3,4-b]pyridin-4-yl)oxy]-N-(4-methylpyridin-2-yl)benzamide] | > 10 µM | > 10 µM | – | – | 0.1 to 1 µM | < 0.1 µM |
| Cc1ccnc(NC(=O)c2ccc(Oc3ccnc4[nH]nc(N[C@@H]5CCCN(C(=O)C(C)(C)C#N)C5)c34)cc2)c1 [compound 102, 4-[(3-{[(3R)-1-(2-cyano-2,2-dimethylacetyl)piperidin-3-yl]amino}-1H-pyrazolo[3,4-b]pyridin-4-yl)oxy]-N-(4-methylpyridin-2-yl)benzamide] | > 10 µM | > 10 µM | – | – | 0.1 to 1 µM | < 0.1 µM |
| Cc1ccnc(NC(=O)c2ccc(Oc3ccnc4[nH]nc(N[C@@H]5CCCN(C(=O)C6(C)CCN(C(=O)OC(C)(C)C)CC6)C5)c34)cc2)c1 [compound 103, tert-butyl 4-methyl-4-[(3R)-3-[(4-{4-[(4-methylpyridin-2-yl)carbamoyl]phenoxy}-1H-pyrazolo[3,4-b]pyridin-3-yl)amino]piperidine-1-carbonyl]piperidine-1-carboxylate] | > 10 µM | > 10 µM | – | – | 1 to 10 µM | < 0.1 µM |
| Cc1ccnc(NC(=O)c2ccc(Oc3ccnc4[nH]nc(N[C@@H]5CCCN(C(=O)C6(C)CCNCC6)C5)c34)cc2)c1 [compound 104, 4-[(3-{[(3R)-1-(4-methylpiperidine-4-carbonyl)piperidin-3-yl]amino}-1H-pyrazolo[3,4-b]pyridin-4-yl)oxy]-N-(4-methylpyridin-2-yl)benzamide] | 1 to 10 µM | > 10 µM | – | – | 0.1 to 1 µM | < 0.1 µM |
| Cc1ccnc(NC(=O)c2ccc(Oc3ccnc4[nH]nc(N[C@@H]5CCCN(C(=O)C6CCOCC6)C5)c34)cc2)c1 [compound 105, N-(4-methylpyridin-2-yl)-4-[(3-{[(3R)-1-(oxane-4-carbonyl)piperidin-3-yl]amino}-1H-pyrazolo[3,4-b]pyridin-4-yl)oxy]benzamide] | > 10 µM | > 10 µM | – | – | 1 to 10 µM | < 0.1 µM |
| Cc1ccnc(NC(=O)c2ccc(Oc3ccnc4[nH]nc(N[C@@H]5CCCN(C(=O)N(C)C)C5)c34)cc2)c1 [compound 106, (3R)-N,N-dimethyl-3-[(4-{4-[(4-methylpyridin-2-yl)carbamoyl]phenoxy}-1H-pyrazolo[3,4-b]pyridin-3-yl)amino]piperidine-1-carboxamide] | 1 to 10 µM | > 10 µM | – | – | 0.1 to 1 µM | < 0.1 µM |
| Cc1ccnc(NC(=O)c2ccc(Oc3ccnc4[nH]nc(N[C@@H]5CCCN(C(=O)C6CCCC6)C5)c34)cc2)c1 [compound 107, 4-[(3-{[(3R)-1-cyclopentanecarbonylpiperidin-3-yl]amino}-1H-pyrazolo[3,4-b]pyridin-4-yl)oxy]-N-(4-methylpyridin-2-yl)benzamide] | > 10 µM | > 10 µM | – | – | 1 to 10 µM | < 0.1 µM |
| CCOC(=O)N1CCC[C@@H](Nc2n[nH]c3nccc(Oc4ccc(C(=O)Nc5cc(C)ccn5)cc4)c23)C1 [compound 108, ethyl (3R)-3-[(4-{4-[(4-methylpyridin-2-yl)carbamoyl]phenoxy}-1H-pyrazolo[3,4-b]pyridin-3-yl)amino]piperidine-1-carboxalate] | 1 to 10 µM | > 10 µM | – | – | 0.1 to 1 µM | < 0.1 µM |
| Cc1ccnc(NC(=O)c2ccc(Oc3ccnc4[nH]nc(N[C@@H]5CCCN(C(=O)c6ccccc6)C5)c34)cc2)c1 [compound 109, 4-[(3-{[(3R)-1-benzoylpiperidin-3-yl]amino}-1H-pyrazolo[3,4-b]pyridin-4-yl)oxy]-N-(4-methylpyridin-2-yl)benzamide] | > 10 µM | > 10 µM | – | – | 1 to 10 µM | < 0.1 µM |
| Cc1ccnc(NC(=O)c2ccc(Oc3ccnc4[nH]nc(N[C@@H]5CCCN(C(=O)c6ccccn6)C5)c34)cc2)c1 [compound 110, N-(4-methylpyridin-2-yl)-4-[(3-{[(3R)-1-(pyridine-2-carbonyl)piperidin-3-yl]amino}-1H-pyrazolo[3,4-b]pyridin-4-yl)oxy]benzamide] | > 10 µM | > 10 µM | – | – | 1 to 10 µM | < 0.1 µM |
| CC1(C(=O)N2CCC[C@@H](Nc3n[nH]c4nccc(Oc5ccc(C(=O)Nc6ccccn6)cc5)c34)C2)COC1 [compound 111, 4-[(3-{[(3R)-1-(3-methyloxetane-3-carbonyl)piperidin-3-yl]amino}-1H-pyrazolo[3,4-b]pyridin-4-yl)oxy]-N-(pyridin-2-yl)benzamide] | > 10 µM | > 10 µM | – | – | 1 to 10 µM | < 0.1 µM |
